“And” between values parts separate entries of the source, which are not always exact repeats. Equal entries are not always repeated.
Assay: Intraduodenal bioavailability of zanamivir from glycerol and PBS formulations, enhancer pre-dose (Example 6)
Settings: for half-life: t1/2, ID 1.5 mg/animal
Description: Male Sprague-Dawley rats (Hilltop Labs), 3 animals per treatment group, 250-350 grams in weight, were fitted with a jugular vein cannula (JVC). Animals intended for intraduodenal dosing were also fitted with one or more intraduodenal cannula (IDC) and those intended for intravenous dosing were fitted with a second JVC. Food was withheld from the animals for a minimum of twelve hours prior to test article administration and was returned approximately four hours post-dose. Water was supplied ad libitum.
Intraduodenal doses composed of 1.5 mg of zanamivir and varying amounts of an enhancer (glycerol or Capmul MCM L8) were injected directly into the duodenum via the IDC. Intravenous dosing was conducted by the injection of 1.5 mg of zanamivir in 200 μL of PBS through a JVC. For some experiments, the absorption enhancer was administered intraduodenally 2 hr prior to administering 1.5 mg of zanamivir in PBS through a second IDC. Each intraduodenal dose was followed with the introduction of a small air bubble (˜10 μL) in the cannula followed by a flush of 125 μL of PBS to ensure the dose was given in full. The volume of PBS used for cannula flush was consistent across the treatment groups. The cannula was tied to prevent the PBS remaining in the cannula from entering the duodenum.
Blood samples collected via the JVC, approximately 400 μL each, were obtained at 2 min, 5 min, 15 min, 30 min, 60 min, 90 min, and 120 min, with sodium heparin used as an anti-coagulant. Each sample was placed into a chilled tube containing the anticoagulant and kept on ice until centrifugation at 4° C., 3,000×g, for 5 min. The plasma supernatants were stored at −70° C. until LC-MS analysis.
Dosing solution samples were assayed by LC-MS/MS using electrospray ionization. The chromatographic system consisted of Perkin Elmer series 200 micropumps and autosampler equipped with a Waters Atlantic® HILIC Silica 3 μM, 2.1×50 mm column. The mass spectrometer was a PE Sciex API 4000 with electrospray interface in multiple reaction monitoring mode. […] Stock solutions (1 mg/mL zanamivir) were prepared in water. Standards (eight concentrations) were prepared in the appropriate matched matrix (HBSSg or Sprague-Dawley rat plasma containing sodium heparin) and diluted 50-fold with methanol. Experimental samples were treated identically.
Standards and samples were prepared in Sprague Dawley rat plasma containing sodium heparin as an anticoagulant. An eight-point calibration curve was prepared at concentrations of 1000, 750, 500, 250, 100, 50, 25, and 10 ng/mL by serial dilution. Standard samples were treated identically to the study samples.
Plasma samples were extracted by protein precipitation in methanol.
In this example, the bioavailability of Zanamivir was evaluated after intraduodenal doses in male Sprague-Dawley rats. The test compound was dosed at 1.5 mg/animal through intraduodenal routes from glycerol and PBS formulations. Plasma levels were determined by LC-MS/MS analysis. Pharmacokinetic parameters were estimated by a non-compartmental model using WinNonlin v5.2.1 software.

SMILES: CC(=O)NC1C(NC(=N)N)C=C(C(=O)O)OC1C(O)C(O)CO (centres unmarked) [Zanamivir, 5-acetamido-4-guanidino-6-(1,2,3-trihydroxypropyl)-5,6-dihydro-4H-pyran-2-carboxylic acid]
- Plasma concentration (ID 1.5 mg/animal, 50 µL PBS, 50 µL blank Capmul MCM L8 -2 hr, 0.25 hr, individual rats): 27.1 ng/mL and 28.1 ng/mL
- Plasma concentration (ID 1.5 mg/animal, 50 µL PBS, 50 µL blank Capmul MCM L8 -2 hr, 0.5 hr, individual rats): 34.5 ng/mL and 42.9 ng/mL
- Plasma concentration (ID 1.5 mg/animal, 50 µL PBS, 50 µL blank Capmul MCM L8 -2 hr, 0.83 hr, individual rats): 18.1 ng/mL and 8.00 ng/mL and 6.27 ng/mL
- Plasma concentration (ID 1.5 mg/animal, 50 µL PBS, 50 µL blank Capmul MCM L8 -2 hr, 1.0 hr, individual rats): 33.1 ng/mL and 32.1 ng/mL
- Plasma concentration (ID 1.5 mg/animal, 50 µL PBS, 50 µL blank Capmul MCM L8 -2 hr, 1.5 hr, individual rats): 61.5 ng/mL and 23.2 ng/mL and 31.4 ng/mL
- Plasma concentration (ID 1.5 mg/animal, 50 µL PBS, 50 µL blank Capmul MCM L8 -2 hr, 2.0 hr, individual rats): 68.3 ng/mL and 14.8 ng/mL and 18.2 ng/mL
- Tmax (ID 1.5 mg/animal, 50 µL PBS, 50 µL blank Capmul MCM L8 -2 hr, individual rats): 2.00 h
- Plasma concentration (ID 1.5 mg/animal, 50 µL PBS, 150 µL blank glycerol -2 hr, 0.25 hr, individual rats): 65.2 ng/mL and 28.9 ng/mL and 61.2 ng/mL
- Plasma concentration (ID 1.5 mg/animal, 50 µL PBS, 150 µL blank glycerol -2 hr, 0.5 hr, individual rats): 40.1 ng/mL and 72.3 ng/mL
- Plasma concentration (ID 1.5 mg/animal, 50 µL PBS, 150 µL blank glycerol -2 hr, 0.83 hr, individual rats): 22.7 ng/mL and 1.47 ng/mL and 48.9 ng/mL
- Plasma concentration (ID 1.5 mg/animal, 50 µL PBS, 150 µL blank glycerol -2 hr, 1.0 hr, individual rats): 39.8 ng/mL and 38.4 ng/mL
- Plasma concentration (ID 1.5 mg/animal, 50 µL PBS, 150 µL blank glycerol -2 hr, 1.5 hr, individual rats): 45.8 ng/mL and 34.5 ng/mL
- Plasma concentration (ID 1.5 mg/animal, 50 µL PBS, 150 µL blank glycerol -2 hr, 2.0 hr, individual rats, BLOQ = below 10 ng/mL): 54.8 ng/mL
- Tmax (ID 1.5 mg/animal, 50 µL PBS, 150 µL blank glycerol -2 hr, individual rats): 1.50 h
- Plasma concentration (ID 1.5 mg/animal, 100 µL Glycerol, 0.25 hr, individual rats): 76.4 ng/mL and 40.7 ng/mL
- Plasma concentration (ID 1.5 mg/animal, 100 µL Glycerol, 0.5 hr, individual rats): 59.2 ng/mL and 35.6 ng/mL
- Plasma concentration (ID 1.5 mg/animal, 100 µL Glycerol, 0.83 hr, individual rats): 55.4 ng/mL and 78.4 ng/mL and 37.5 ng/mL
- Plasma concentration (ID 1.5 mg/animal, 100 µL Glycerol, 1.0 hr, individual rats): 55.3 ng/mL and 39.4 ng/mL
- Plasma concentration (ID 1.5 mg/animal, 100 µL Glycerol, 1.5 hr, individual rats): 29.6 ng/mL and 47.6 ng/mL and 63.5 ng/mL
- Plasma concentration (ID 1.5 mg/animal, 100 µL Glycerol, 2.0 hr, individual rats): 30.8 ng/mL and 37.4 ng/mL and 94.5 ng/mL
- Tmax (ID 1.5 mg/animal, 100 µL Glycerol, individual rats): 2.00 h
- t1/2 (ID 1.5 mg/animal, 100 µL Glycerol, mean (n = 1)): 1.77 h
- Plasma concentration (ID 1.5 mg/animal, 150 µL Glycerol, 0.25 hr, individual rats): 57.9 ng/mL and 96.3 ng/mL
- Plasma concentration (ID 1.5 mg/animal, 150 µL Glycerol, 0.5 hr, individual rats): 919 ng/mL and 57.8 ng/mL and 55.9 ng/mL
- Plasma concentration (ID 1.5 mg/animal, 150 µL Glycerol, 0.83 hr, individual rats): 72.7 ng/mL and 108 ng/mL
- Plasma concentration (ID 1.5 mg/animal, 150 µL Glycerol, 1.0 hr, individual rats): 60.6 ng/mL and 36.6 ng/mL
- Plasma concentration (ID 1.5 mg/animal, 150 µL Glycerol, 1.5 hr, individual rats): 46.8 ng/mL and 46.9 ng/mL and 16.0 ng/mL
- Plasma concentration (ID 1.5 mg/animal, 150 µL Glycerol, 2.0 hr, individual rats): 37.7 ng/mL and 33.4 ng/mL and 16.7 ng/mL
- tmax (second line so headed, Table 10) (ID 1.5 mg/animal, 150 µL Glycerol, individual rats): 1.16 h
- half-life (male, Sprague-Dawley, rat, in vivo, 1.5 mg, 50 µL PBS, 50 µL blank Capmul MCM L8 -2 hr, individual rats): 0.86 h
- half-life (male, Sprague-Dawley, rat, in vivo, 1.5 mg, 50 µL PBS, 50 µL blank Capmul MCM L8 -2 hr, mean (n = 1)): 0.86 h
- half-life (male, Sprague-Dawley, rat, in vivo, 1.5 mg, 100 µL Glycerol, individual rats): 1.77 h
- half-life (male, Sprague-Dawley, rat, in vivo, 1.5 mg, 100 µL Glycerol, mean (n = 1)): 1.77 h
- half-life (male, Sprague-Dawley, rat, in vivo, 1.5 mg, 150 µL Glycerol, mean (n = 2)): 1.63 h
- Tmax (male, Sprague-Dawley, rat, in vivo, 1.5 mg, tmax (second line so headed, Table 10), ID 1.5 mg/animal, 150 µL Glycerol, individual rats): 2.09 h
- Tmax (male, Sprague-Dawley, rat, in vivo, 1.5 mg, tmax (second line so headed, Table 10), ID 1.5 mg/animal, 150 µL Glycerol, mean): 1.63 h
- Tmax (male, Sprague-Dawley, rat, in vivo, 1.5 mg, tmax, ID 1.5 mg/animal, 50 µL PBS, 50 µL blank Capmul MCM L8 -2 hr, mean): 1 h
- Tmax (male, Sprague-Dawley, rat, in vivo, 1.5 mg, tmax, ID 1.5 mg/animal, 50 µL PBS, 150 µL blank glycerol -2 hr, mean): 0.75 h

— patent US20140314857A1, “FORMULATIONS FOR ENHANCED BIOAVAILABILITY OF ZANAMIVIR” (priority 2012, published 2014)
